Here are results for three molecules from patent US9886545B2, “Interrogatory cell-based assays and uses thereof” (Berg LLC, priority 2011, dated 2018).

The subject of data set [1] is LDHA expression in HepG2 cells. Description: Wet lab validation of LDHA expression in HepG2 cells. It is filed as cell-based. Particulars: 50 uM or 100 uM CoQ10 for 24 or 48 hours. As to the method: Protein accession number P00338 is LDHA. Wet lab validation of proteomics data were performed for LDHA expression in HepG2 cells (see FIG. 20).
The next data set deals with Bcl2 in melanoma cell. Nature of the data set: Bcl2 level in melanoma cell in the presence of VEGF. It is filed as cell-based. An excerpt: (§1) The term “Multidimensional Intracellular Molecule (MIM)”, is an isolated version or synthetically produced version of an endogenous molecule that is naturally produced by the body and/or is present in at least one cell of a human. A MIM is capable of entering a cell and the entry into the cell includes complete or partial entry into the cell as long as the biologically active portion of the molecule wholly enters the cell. MIMs are capable of inducing a signal transduction and/or gene expression mechanism within a cell. MIMs are multidimensional because the molecules have both a therapeutic and a carrier, e.g., drug delivery, effect. MIMs also are multidimensional because the molecules act one way in a disease state and a different way in a normal state. For example, in the case of CoQ-10, administration of CoQ-10 to a melanoma cell in the presence of VEGF leads to a decreased level of Bcl2 which, in turn, leads to a decreased oncogenic potential for the melanoma cell. In contrast, in a normal fibroblast, co-administration of CoQ-10 and VEFG has no effect on the levels of Bcl2.

The test system of data set [2] is Bcl2 in normal fibroblast. Nature of the data set: Bcl2 level in normal fibroblast with VEGF co-administration. It is filed as cell-based.
Excerpt: as §1

For data set [3], the system named is human mitochondrial energy metabolism genes. Nature of the data set: Transcriptional profiling of diabetic cardiomyocytes. It is filed as cell-based. Particulars: diabetic cardiomyocytes treated with diabetic drug plus rescue molecule (T+R) vs untreated (UT). As to the method:
Human cardiomyocytes were subject to conditions simulating an diabetic environment experienced by the disease-relevant cells in vivo. Specifically, the cells were exposed to hyperglycemic conditions and hyperlipidemia conditions. The hyperglycemic condition was induced by culturing cells in media containing 22 mM glucose. The hyperlipidemia condition was induced by culturing the cells in media containing 1 mM L-carnitine, 0.7 mM Oleic acid and 0.7 mM Linoleic acid. […]
iProfiling of changes in total cellular protein expression by quantitative proteomics was performed for cell and media samples collected for each condition and with each “environmental perturbation”, i.e, diabetic drug treatment, Coenzyme Q10 treatment or both, using the techniques described above in the detailed description. […] Following data collection (Ct), the final fold change over control was determined using the δCt method as outlined in manufacturer's protocol. […] Functional assays such as Oxygen consumption rate OCR were measured by employing the Seahorse analyzer essentially as recommended by the manufacturer. OCR was recorded by the electrodes in a 7 μl chamber created with the cartridge pushing against the seahorse culture plate. […]

The target in the next data set is FASN (Mus musculus, UniProt P19096). Particulars: Loftus et al 2000; cited from earlier work.
FASN, sequence (P19096 whole entry): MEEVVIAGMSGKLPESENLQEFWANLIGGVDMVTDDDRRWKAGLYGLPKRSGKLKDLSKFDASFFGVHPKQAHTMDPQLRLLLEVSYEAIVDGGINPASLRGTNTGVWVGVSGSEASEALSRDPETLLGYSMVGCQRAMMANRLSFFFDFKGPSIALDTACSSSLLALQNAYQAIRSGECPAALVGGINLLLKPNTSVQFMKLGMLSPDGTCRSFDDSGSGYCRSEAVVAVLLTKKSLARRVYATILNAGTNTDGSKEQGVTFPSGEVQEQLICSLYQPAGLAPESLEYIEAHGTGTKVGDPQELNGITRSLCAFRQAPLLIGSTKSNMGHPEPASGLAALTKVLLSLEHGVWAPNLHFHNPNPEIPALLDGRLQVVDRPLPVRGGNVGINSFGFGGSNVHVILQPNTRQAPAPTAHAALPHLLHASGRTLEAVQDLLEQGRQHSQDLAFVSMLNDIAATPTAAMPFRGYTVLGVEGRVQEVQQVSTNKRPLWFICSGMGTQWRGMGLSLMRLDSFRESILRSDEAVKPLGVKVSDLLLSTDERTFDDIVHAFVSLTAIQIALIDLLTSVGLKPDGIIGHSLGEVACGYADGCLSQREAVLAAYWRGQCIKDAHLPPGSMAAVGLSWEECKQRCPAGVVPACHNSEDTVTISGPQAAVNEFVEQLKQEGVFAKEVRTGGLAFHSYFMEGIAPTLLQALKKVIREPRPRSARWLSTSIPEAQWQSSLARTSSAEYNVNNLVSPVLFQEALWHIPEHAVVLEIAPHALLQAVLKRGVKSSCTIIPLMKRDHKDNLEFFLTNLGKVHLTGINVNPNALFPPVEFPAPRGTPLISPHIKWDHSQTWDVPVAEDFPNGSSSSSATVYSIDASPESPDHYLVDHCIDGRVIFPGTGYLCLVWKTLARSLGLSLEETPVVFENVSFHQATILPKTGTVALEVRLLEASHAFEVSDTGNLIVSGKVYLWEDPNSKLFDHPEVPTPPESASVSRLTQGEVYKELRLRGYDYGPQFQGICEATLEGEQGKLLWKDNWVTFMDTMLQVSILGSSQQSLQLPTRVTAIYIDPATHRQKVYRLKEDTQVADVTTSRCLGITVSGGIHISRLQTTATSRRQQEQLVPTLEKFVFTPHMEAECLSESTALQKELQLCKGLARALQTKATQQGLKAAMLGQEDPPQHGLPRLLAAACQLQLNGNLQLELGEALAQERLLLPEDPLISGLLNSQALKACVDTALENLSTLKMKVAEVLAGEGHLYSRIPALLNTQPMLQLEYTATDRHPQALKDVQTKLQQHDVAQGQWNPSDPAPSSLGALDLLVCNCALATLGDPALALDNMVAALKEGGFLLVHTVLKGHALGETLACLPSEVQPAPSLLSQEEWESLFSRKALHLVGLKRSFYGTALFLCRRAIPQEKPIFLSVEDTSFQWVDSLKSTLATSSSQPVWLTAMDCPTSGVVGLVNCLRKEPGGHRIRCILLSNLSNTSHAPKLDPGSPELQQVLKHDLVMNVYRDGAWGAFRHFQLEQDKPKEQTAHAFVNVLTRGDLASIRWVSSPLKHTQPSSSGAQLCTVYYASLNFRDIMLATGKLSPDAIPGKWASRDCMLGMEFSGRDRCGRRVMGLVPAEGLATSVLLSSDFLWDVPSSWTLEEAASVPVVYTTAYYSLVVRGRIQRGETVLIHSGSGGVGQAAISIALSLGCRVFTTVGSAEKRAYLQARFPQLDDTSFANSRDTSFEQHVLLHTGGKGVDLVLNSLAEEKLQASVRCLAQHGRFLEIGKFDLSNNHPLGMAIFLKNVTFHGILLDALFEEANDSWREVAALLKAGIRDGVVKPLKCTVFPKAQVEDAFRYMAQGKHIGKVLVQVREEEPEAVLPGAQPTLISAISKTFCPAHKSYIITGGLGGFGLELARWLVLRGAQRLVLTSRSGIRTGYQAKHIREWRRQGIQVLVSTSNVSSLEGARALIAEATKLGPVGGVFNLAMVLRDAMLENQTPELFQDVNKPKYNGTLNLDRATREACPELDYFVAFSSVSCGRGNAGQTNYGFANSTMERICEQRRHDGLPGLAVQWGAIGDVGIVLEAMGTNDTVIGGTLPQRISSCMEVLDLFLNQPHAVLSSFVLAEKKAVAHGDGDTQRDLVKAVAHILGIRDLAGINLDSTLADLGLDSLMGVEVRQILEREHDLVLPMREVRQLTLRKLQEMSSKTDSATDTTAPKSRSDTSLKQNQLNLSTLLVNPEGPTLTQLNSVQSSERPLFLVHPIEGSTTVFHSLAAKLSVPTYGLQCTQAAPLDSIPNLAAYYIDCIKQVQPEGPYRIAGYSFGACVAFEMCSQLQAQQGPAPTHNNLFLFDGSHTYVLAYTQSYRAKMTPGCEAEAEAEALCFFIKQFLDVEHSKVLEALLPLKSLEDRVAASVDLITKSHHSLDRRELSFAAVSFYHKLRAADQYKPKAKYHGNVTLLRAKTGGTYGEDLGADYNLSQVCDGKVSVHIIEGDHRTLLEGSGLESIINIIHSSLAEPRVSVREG

Consider `COC1=C(OC)C(=O)C(C/C=C(\C)CC/C=C(\C)CC/C=C(\C)CC/C=C(\C)CC/C=C(\C)CC/C=C(\C)CC/C=C(\C)CC/C=C(\C)CC/C=C(\C)CCC=C(C)C)=C(C)C1=O` [Coenzyme Q10], for which the LDHA expression levels entry in data set [1] is “decreased”. Further, the “level of Bcl2” value with Bcl2 in melanoma cell is given as “decreased”. The “levels of Bcl2” value in data set [2] is listed as “no effect”. Also, the results for the “gene expression and transcription of mitochondrial energy metabolism genes, rescue” value in data set [3] and in data set [3] (listed as R) were “normalize” and “normalizes”, respectively.

As for `C=C1C(=O)OC(CCCCCCCC)C1C(=O)O` (stereo not drawn) [C75], at FASN, the food intake result was “reducing” and the weight loss result is “effectuate weight loss”.

`C/C=C/C/C=C/CCC(=O)[C@H]1O[C@H]1C(N)=O` [Cerulenin]: on FASN, the food intake entry is given as “reducing” and the weight loss result is given as “effectuate weight loss”.
